Tests used:
[1] = tested on: IL-4 production in normal human CD4+T cell; assay: IL-4 production inhibitory action evaluation test (anti-CD3/CD28 antibody stimulation, ELISA); assay type: cell-based; conditions: anti-CD3/CD28, 24 hours, read-out: IL-4 production inhibitory ratio (% of 1 μM)
Protocol: In order to evaluate an action of the present compound as a GR agonist, IL-2 and IL-4 production inhibitory actions in a normal human CD4^+T cell after stimulation by an anti-CD3/CD28 antibody were investigated. For the measurement of the IL-2 and IL-4 production amounts, the ELISA method (manufactured by R&D Systems, Cat No. D2050, HS400) was used, and a procedure was carried out according to the protocol attached thereto. Hereinafter, the specific method will be described.
Dynabeads (Registered Trademark) Human T-Activator CD3/CD28 (4×10^7 beads/mL) (Dynabeads) was used, and prepared according to the protocol attached thereto.
After the test compound was dissolved in dimethylsulfoxide, the solution was diluted with an RPMI medium to prepare 400 μM of a test compound solution. The solution was diluted with a 4% dimethylsulfoxide-containing RPMI medium to prepare 40 μM of a test compound solution.
Used cells: normal peripheral blood human CD4^+T cell (human CD4^+T cell) (Lonza)
• 1) Frozen human CD4^+T cells were thawed in a warm water bath at 37° C., and added to an RPMI medium (RPMI 1640 containing 10% FBS, 100 U/mL of Penicillin, and […] of Streptomycin). • 2) The above suspension was recovered and centrifuged at 900 rpm for 10 minutes to give a cell sediment. • 3) The cell sediment was suspended in an RPMI medium and the operation of 2) was carried out. • 4) The cell sediment was adjusted to 4×10^5 cells/mL with an RPMI medium. • 5) The above suspension was cultured in a CO2 incubator (temperature: 37° C., CO2 concentration: 5%) for 1 hour or longer. (Test Method and Measurement Method) • 1) The cultured human CD4^+T cells were recovered and the cells were seeded in 96-well flat bottom culture plates at each 8.0×10^4 cells/0.2 mL/well. • 2) The test compound solution was added with each 5 μL/well. • 3) The prepared Dynabeads were added with each 2 μL/well. • 4) The sample in which 4% dimethylsulfoxide-containing RPMI medium was added with each 5 μL/well in place of each test compound solution, and the RPMI medium was added with each 2 μL/well in place of the Dynabeads was made a negative control. • 5) The sample in which 4% dimethylsulfoxide-containing RPMI medium was added with each 5 μL/well in place of each test compound solution was made a positive control. • 6) After completion of 24 hours cultivation, the supernatant was recovered and the amounts of IL-2 and IL-4 released in the supernatant was measured by using an ELISA Kit. • 7) The IL-2 and IL-4 production inhibitory ratios were calculated according to the following calculation formula. (Calculation of IL-2 and IL-4 Production Inhibitory Ratios)
The IL-2 and IL-4 production inhibitory ratios (%) were calculated by the following formula, respectively. IL-2 or IL-4 production inhibitory ratio (%)=100×{1−(IL-2 or IL-4 production amounts of each test compound solution−average value of IL-2 or IL-4 production amount of negative control group)/(average value of IL-2 or IL-4 production amount of positive control group−average value of IL-2 or IL-4 production amount of negative control group)}(%) (Test Result and Consideration)

[2] = tested on: IL-6 production in human corneal epithelium cell line (HCE-T); assay: IL-6 production inhibitory action evaluation test (LPS stimulation, HTRF); assay type: cell-based; conditions: 4 hours; for Emax: 100 μM test compound solution 10 μL/well, DEX treated group = 100, read-out: IL-6 production inhibitory ratio (% DEX); for IC50: IL-6 production inhibition
Protocol: To evaluate the action of the present compounds as a GR agonist, IL-6 production inhibitory action in human corneal epithelial cell line after LPS stimulation was examined The IL-6 production was measured by using the HTRF method (Cat No. 62IL6PEB manufactured by Cisbio Bioassays, Inc.) according to the attached protocol. The specific method is described below.
LPS solution: After dissolving LPS in PBS(−), the resulting solution was diluted with a culture solution, whereby an LPS solution with a 1 μg/mL concentration was prepared.
After dissolving the test compound in dimethylsulfoxide, the solution was diluted with a 10% FBS-DMEM/Ham's F12 medium, whereby a 100 μM of the test compound solution was prepared. […] In addition, DEX was similarly dissolved, whereby a 100 μM concentration of the DEX solution was prepared, and an IL-6 production inhibitory ratio of DEX was measured, and used for calculation of Efficacy (% DEX).
Used cells: human corneal epithelium cell line (HCE-T) (RIKEN, Institute of Physical and Chemical Research)
The cells continued to subculture according to this method were used for the test. (Test Method and Measurement Method) • 1) The subcultured HCE-T was recovered and the cells were seeded at 2.0×10^4 cells/0.1 mL/well in a 96-well flat bottom culture plate. • 2) After culturing overnight, medium the medium was removed and each 80 μL/well of 10%
FBS-DMEM/Ham's F12 medium was added. • 3) Test compound solution was added with each 10 μL/well. • 4) LPS solution was added with each 10 μL/well. • 5) The sample to which 1% dimethylsulfoxide-containing 10% FBS-DMEM/Ham's F12 medium was added with each 10 μL/well in place of each test compound solution, and 10% FBS-DMEM/Ham's F12 medium was added in place of the LPS solution was made a negative control. • 6) The sample in which 1% dimethylsulfoxide-containing 10% FBS-DMEM/Ham's F12 medium was added with each 10 μL/well in place of each test compound solution was made a positive control. • 7) After completion of 4 hours cultivation, the supernatant was recovered and the amount of IL-6 released in the supernatant was measured by using an HTRF human IL-6 Kit. • 8) The IL-6 production inhibitory ratio was calculated according to the following calculation formula. (Calculation of IL-6 Production Inhibitory Ratio)
The IL-6 production inhibitory ratio (%) was calculated by the following formula. IL-6 production inhibitory ratio (%)=100×{1−(IL-6 produced amount of each test compound solution−average value of IL-6 produced amount of negative control group)/(average value of IL-6 produced amount of positive control group−average value of IL-6 produced amount of negative control group)}(%)
Further, the IL-6 production inhibitory ratio (Efficacy (% DEX)) when the DEX treated group was made 100 was calculated. Efficacy (% DEX)=100×{(average value of IL-6 production inhibitory ratio of each test compound solution)/(average value of IL-6 production inhibitory ratio of DEX treated group)}(%)
In addition, IC50 was calculated according to a conventional method. IDBS XLfit4 was used for the calculation.

Row | Compound | inhibition at 1 µM [1] | Emax [2] | IC50 [2]
1 | COc1cc(OC[C@H](C)OC(=O)CN(C)C)ccc1-c1ccc2c(c1COc1cc(F)ccc1C)N(C)C(=O)C(C)(C)N2 [Compound 11-1, (S)-7-[4-[2-(N,N-dimethylaminoacetoxy)propyl]oxy-2-methoxyphenyl]-8-(5-fluoro-2-methylphenoxymethyl)-1,3,3-trimethyl-3,4-dihydro-1H-quinoxalin-2-one] | 87% | – | –
2 | COc1cc(OC[C@@H](O)CC#N)ccc1-c1ccc2c(c1COc1cc(F)ccc1C)N(C)C(=O)C(C)(C)N2 [Compound 5-2, (S)-7-[4-(3-cyano-2-hydroxypropyl)oxy-2-methoxyphenyl]-8-(5-fluoro-2-methyl-phenoxymethyl)-1,3,3-trimethyl-3,4-dihydro-1H-quinoxalin-2-one] | – | > 99% | 13 nM
3 | COc1cc(OC[C@@H](O)CCO)ccc1-c1ccc2c(c1COc1cc(F)ccc1C)N(C)C(=O)C(C)(C)N2 [Compound 2-1, (S)-7-[4-(2,4-dihydroxybutyl)oxy-2-methoxyphenyl]-8-(5-fluoro-2-methyl-phenoxymethyl)-1,3,3-trimethyl-3,4-dihydro-1H-quinoxalin-2-one] | 83% | 82% | –
4 | COCOc1ccc(-c2ccc3c(c2COc2cc(F)ccc2C)N(C)C(=O)C(C)(C)N3)c(OC)c1 [Control compound F, 8-(5-fluoro-2-methylphenoxymethyl)-7-(2-methoxy-4-methoxymethoxyphenyl)-1,3,3-trimethyl-3,4-dihydro-1H-quinoxalin-2-one, reference compound] | 29% | 62% | –
5 | CCCC(=O)Oc1ccc(-c2ccc3c(c2COc2cc(F)ccc2C)N(C)C(=O)C(C)(C)N3)c(OC)c1 [Control compound D, 7-(4-butyryloxy-2-methoxyphenyl)-8-(5-fluoro-2-methylphenoxymethyl)-1,3,3-trimethyl-3,4-dihydro-1H-quinoxalin-2-one, reference compound] | 46% | 69% | –
6 | COc1cc(OC[C@H](C)O)ccc1-c1ccc2c(c1COc1cc(F)ccc1C)N(C)C(=O)C(C)(C)N2 [Compound 1-1, (S)-8-(5-fluoro-2-methylphenoxymethyl)-7-[4-(2-hydroxypropyl)oxy-2-methoxy-phenyl]-1,3,3-trimethyl-3,4-dihydro-1H-quinoxalin-2-one] | 91% | 86% | –
7 | COc1ccc(-c2ccc3c(c2COc2cc(F)ccc2C)N(C)C(=O)C(C)(C)N3)c(OC)c1 [Control compound E, 7-(2,4-dimethoxyphenyl)-8-(5-fluoro-2-methyl-phenoxymethyl)-1,3,3-trimethyl-3,4-dihydro-1H-quinoxalin-2-one, reference compound] | 32% | 10% | –
8 | COc1ccc(O)cc1-c1ccc2c(c1COc1cc(F)ccc1C)N(C)C(=O)C(C)(C)N2 [Control compound C, 8-(5-fluoro-2-methylphenoxymethyl)-7-(5-hydroxy-2-methoxyphenyl)-1,3,3-trimethyl-3,4-dihydro-1H-quinoxalin-2-one] | 56% | 71% | 93 nM
9 | COc1ccc(CO)cc1-c1ccc2c(c1COc1cc(F)ccc1C)N(C)C(=O)C(C)(C)N2 [Control compound B, 8-(5-fluoro-2-methylphenoxymethyl)-7-(5-hydroxymethyl-2-methoxyphenyl)-1,3,3-trimethyl-3,4-dihydro-1H-quinoxalin-2-one, reference compound] | 51% | 62% | –
